The values below are quoted from earlier work in patent US20110280834A1, “METHODS AND COMPOSITIONS FOR CARDIAC TISSUE REGENERATION” (priority 2009, published 2011).

In general, half-life refers to how long it takes for the measured level to halve.

For the data set the following is noted: rat, in vivo, ip, 70 umol/kg.

As for `O=c1[nH]c(=O)n([C@H]2C[C@H](O)[C@@H](CO)O2)cc1Br` [BrdU], the half-life was 2 h.
